Tests used:
HEK293T cells = assay: In-cell fluorescent labelling of SelU-mediated tRNA geranylation, confocal imaging; type: cell-based
Procedure: The HEK293T cells were washed twice with PBS, and trypsin was added for 1 min. Then 2.0 mL DMEM medium was added to the mixed well, followed by centrifuged at 1,000 r.p.m for 5 min, and the supernatant was discarded. Fresh medium was added to resuspend the cell pellet and cells were seeded in a confocal dish at the density of 0.5×1 05, the cells were gently mixed using pipette, and then placed in CO2 incubator. 150 mM sterile NaCl solution was prepared as a diluent for DNA and Vigofect (Vigorous Biotechnology Beijing Co., Ltd.). The culture medium in the confocal dish was then replaced with fresh complete culture medium before transfection, and the culture was incubated at 37° C. under 5% CO2 atmosphere. […] Configure the transfection working solution. […] Next, 2.5 μl VigoFect was added to the diluent (total 100 μl), and the solution was mixed gently and placed at room temperature for 5 min. Next, the diluted VigoFect was added into the diluted DNA solution gently, and the resulting transfection working solution was incubated at room temperature for 15 min. Subsequently, the working solution was added to the cell culture, mixed gently and incubated for 24 h. […] Cells were washed with PBS 3 times and then fixed with 4% paraformaldehyde for 15 min, and subsequently permeabilized with 0.5% Triton X-100 for 15 min. […]

SelU = SelU (Escherichia coli, UniProt P33667); type: biochemical, E. coli; conditions: for modified RNA residues after click reaction and RNase cleavage (recognition by SelU): HPLC and MS-spec data
SelU, sequence (P33667 whole entry): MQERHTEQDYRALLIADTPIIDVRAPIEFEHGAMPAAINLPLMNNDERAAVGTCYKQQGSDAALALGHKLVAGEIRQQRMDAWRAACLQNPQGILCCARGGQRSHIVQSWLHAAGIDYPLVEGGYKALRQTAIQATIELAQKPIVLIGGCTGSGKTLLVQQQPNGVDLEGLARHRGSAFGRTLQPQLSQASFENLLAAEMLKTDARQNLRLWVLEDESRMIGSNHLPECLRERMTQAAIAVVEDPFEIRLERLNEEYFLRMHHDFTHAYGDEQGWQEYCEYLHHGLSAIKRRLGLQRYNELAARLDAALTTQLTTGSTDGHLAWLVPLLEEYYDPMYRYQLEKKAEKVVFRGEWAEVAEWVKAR

prenylated tRNA = assay: Direct fluorescent labelling of prenylated tRNA by Ene-ligation, in-gel fluorescence; conditions: 10 μM probe; total RNAs isolated from E. coli
Procedure: tRNA (1.0 mg) isolated from E. coli using Zymo purification kit strictly following the instruction protocol was dissolved in PBS buffer (0.1 M, pH=7.4) and the PTAD-DBCO-Cy5 probe (1.0 mM) generated by in-situ oxidation with N-bromosuccinimide (NBS, 1 M in DMF) was added in one portion at 4° C. The mixture was incubated at 4° C. for 15 min in a sterile tube. And excess fluorescent probe was removed by 3K filter (Millipore) and the resulting nucleic acid was analyzed by in-gel fluorescence (Scheme S8).

HeLa cells [1] = assay: Cytotoxic assays of i^6A (4) towards HeLa cells; type: cell-based
Text: In order to better detect the involvement of i^6A (4) in the transcription process of cellular RNA, we also tested the effect of i^6A (4) on cytotoxicity and optimized the concentration of i^6A (4) to treat cells.

HeLa cells [2] = assay: Incorporation of i^6A into total RNA of eukaryotic cells, detected with PTAD-DBCO-FITC (8); type: cell-based
Procedure: Next, we will further test whether i^6A (4) can participate in the RNA transcription process in eukaryotic cells. First culture the HeLa cells in a six-well plate to 70%-80%. […] After 12 hours of culture, collect all cells and extract total RNA.
To the 1.5 mL Eppendorf tube containing PTAD-DBCO-FITC precursor (7, 10 μL, 10 mM solution in DMF) was added N-bromo succinimide (1.0 μL, 100 mM in DMF). The mixture was vortexed gently and formation of the light-red color was observed. The reagent was kept on ice and used for the i^6A-incorporated RNA labelling immediately. Labeling protocol is the same stated above.
HeLa cells was obtained from ATCC. HeLa cells were cultured in DMED medium with 10% fetal calf serum. Cells were maintained in a humidified incubator at 5% CO2 and 37° C. To label RNA in vivo, HeLa cells were cultured in 6-well plates to 70%-80%. […] Then it will be detected by agarose gel electrophoresis. […]
The i^6A-incorporated total RNA ([…], 20 ng/mL in DEPC water) was incubated with PTAD-DBCO-FITC ([…] of a 0.1 mM solution), shaken for 30 minutes at 0° C. The RNA was then analyzed through gel electrophoresis on a 1% agarose gel. […] Gels were analyzed by in-gel fluorescence measurements on a FluorChem® FC3 imager (Alpha Innotech). Fluorescence was measured with a blue light excitation wavelength (475 nm) and a green filter emission (537 nm).

[3] = Iodine-mediated cyclisation of nucleoside i^6A; type: physicochemical; conditions: optimized concentration of iodine reagent
Procedure: Model reactions of i^6A nucleoside (4). The model reactions were carried out in DMSO-d6 in order to facilitate in situ NMR characterization without further purification. i^6A (4, 0.15 mmol) was dissolved in DMSO-d6 (0.5 mL), and iodine (0.45 mmol) was added. The mixture was stirred at 37° C. for 5 minutes and was taken out for ^1H NMR.
The reactions were conducted in DMSO-d^6 to enable in situ NMR characterization without the need for additional purification. i^6A (4, 0.15 mmol) was dissolved in DMSO-d^6 (0.5 mL), and iodine (0.45 mmol in DMSO-d^6) was subsequently added to the solution. The mixture was then stirred at 37° C. for 5 minutes. After this incubation period, the reaction mixture was subjected to ^1H NMR, ^13C NMR, HPLC, UV and LC-MS analysis.

[4] = Dynamic investigation of the Ene-ligation of i^6A with PTAD by proton NMR; type: physicochemical; conditions: i^6A 30 mM, PTAD 0.15 mmol, CD3CN/D2O (v/v, 1/1), room temperature, within 5 minutes
Procedure: Nucleoside i^6A (4, 10 mg, 0.03 mmol) were dissolved in CD3CN/D2O (1.0 mL, v/v=1:1, final concentration=30 mM). PTAD (5, 26 mg, 0.15 mmol) was then added to the solution (final concentration=150 mM), and the reaction mixture was allowed to stand at room temperature. The ^1H NMR spectra were recorded by proton NMR (400 MHz).
The nucleoside i^6A (10 mg, 0.03 mmol) was dissolved in a mixture of CD3CN and D2O (0.5 mL, volume-to-volume ratio of 4:1, resulting in a final concentration of 60 mM). Subsequently, 4-phenyl-3H-1,2,4-triazole-3,5(4H)-dione (PTAD, 26 mg, 0.15 mmol, equivalent to 5 times the amount of i^6A) was added to the solution (resulting in a final concentration of 300 mM). The reaction mixture was then allowed to stand at room temperature. The ^1H NMR spectra were obtained using a 400 MHz ^1H NMR instrument with CD3CN/D2O as the solvent.

T7 RNA polymerase = T7 RNA polymerase (Escherichia phage T7, UniProt P00573)
T7 RNA polymerase, sequence (P00573 whole entry): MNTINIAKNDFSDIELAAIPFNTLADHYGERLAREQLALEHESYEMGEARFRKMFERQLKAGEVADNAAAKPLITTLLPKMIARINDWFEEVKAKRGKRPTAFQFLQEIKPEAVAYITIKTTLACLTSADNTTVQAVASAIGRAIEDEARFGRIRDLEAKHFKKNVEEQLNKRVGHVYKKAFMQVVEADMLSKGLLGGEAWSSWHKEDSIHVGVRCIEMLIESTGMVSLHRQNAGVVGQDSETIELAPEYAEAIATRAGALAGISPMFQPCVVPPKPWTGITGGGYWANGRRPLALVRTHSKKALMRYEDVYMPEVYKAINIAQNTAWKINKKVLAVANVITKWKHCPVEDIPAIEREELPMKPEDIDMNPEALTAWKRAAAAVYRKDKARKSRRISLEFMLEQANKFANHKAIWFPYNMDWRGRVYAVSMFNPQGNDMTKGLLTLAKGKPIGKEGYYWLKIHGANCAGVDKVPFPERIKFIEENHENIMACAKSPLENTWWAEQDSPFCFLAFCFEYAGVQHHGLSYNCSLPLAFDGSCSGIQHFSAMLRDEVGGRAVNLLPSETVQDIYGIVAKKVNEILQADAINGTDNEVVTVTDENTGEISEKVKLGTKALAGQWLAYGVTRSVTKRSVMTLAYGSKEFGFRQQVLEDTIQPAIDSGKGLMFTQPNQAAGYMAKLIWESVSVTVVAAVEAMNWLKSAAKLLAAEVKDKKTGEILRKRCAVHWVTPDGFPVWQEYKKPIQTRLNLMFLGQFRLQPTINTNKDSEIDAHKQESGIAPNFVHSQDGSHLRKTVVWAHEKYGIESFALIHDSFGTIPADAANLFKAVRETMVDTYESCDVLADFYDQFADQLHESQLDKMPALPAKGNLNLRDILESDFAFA
Procedure: Using the T7P-EGFP constructed above as a template and rNTP as substrates, the reaction was carried out at 37° C. for 2 hours which was catalyzed by T7 RNA polymerase. After the reaction, the template DNA T7P-EGFP was degraded with DNase I. Finally, the RNA was precipitated and purified, and the transcription effect of the RNA was detected by agarose gel electrophoresis. The T7P-EGFP template sequence and HeLa genomic RNA were used as the control group.
EGFP-RNA was transcript with T7 transcription kit (Takara) in vitro. The system was kept at 37° C. for 2 hours. 1-4 extended to 6 hours. Then the templets were digested with DNase 1, 37° C. for 30 minutes. […] RNA concentration was determined with a Nanodrop One microvolume UV-Vis. spectrophotometer.

For `CC(C)=CCC/C(C)=C/COP(=O)(O)OP(=O)(O)O` [Ge1, (E)-3,7-dimethylocta-2,6-dien-1-yldiphosphate Tetrabutylammonium Trimer, reference compound], the “red fluorescence of geranylated tRNA in cells, direct labelling” value (HEK293T cells; transfected SelU and 5s (tRNA^Lys), probe PTAD-DBCO-Cy5) was “clearly showed the red fluorescence”.
For `CC(C)=CCCC(C)CCOP(=O)(O)OP(=O)(O)O` (centres unmarked) [Ge2, 3,7-dimethyloct-6-en-1-yl pyrophosphate], the “modified RNA residues after click reaction and RNase cleavage (recognition by SelU)” value (SelU) was “no modified RNA residues”.
For `CC(C)=CCCOP(=O)(O)OP(=O)(O)O` [Ge3, 4-methylpent-3-en-1-yl Diphosphate Tetrabutyl Ammonium Trimer], the “modified RNA residues after click reaction and RNase cleavage (recognition by SelU)” value (SelU) was “no modified RNA residues”.
With `C/C(=C\COP(=O)(O)OP(=O)(O)O)CC/C=C(\C)CN=[N+]=[N-]` [Ge5] the “fluorescent labelling of tRNA^Gln, Glu, Lys after SelU-mediated transfer of the ligand” value (SelU) was “efficient fluorescent signal of tRNA was observed” and the “red fluorescence in cells, two-step ACT-Flu approach” value (HEK293T cells; SelU co-transfected, probe DBCO-Cy5) was “strong red florescence”.
For `C/C(=C\COP(=O)(O)OP(=O)(O)O)CC/C=C(\C)COC(=O)CCC(=O)N1Cc2ccccc2C#Cc2ccccc21` [Ge7], the “fluorescent labelling of tRNA^Gln, Glu, Lys after SelU-mediated transfer of the ligand” value (SelU) was “failed”.
In the case of `CN1/C(=C/C=C/C=C/C2=[N+](CCCCCC(=O)NCCC(=O)N3Cc4ccccc4-c4c(nnn4CCOc4ccc(N5C(=O)N=NC5=O)cc4)-c4ccccc43)c3ccccc3C2(C)C)C(C)(C)c2ccccc21.[Cl-]` [PTAD-DBCO-Cy5], the “fluorescent signal of total RNAs treated with the probe” value (prenylated tRNA) is reported as “a red fluorescent signal was observed”.
In the case of `CC(C)=CCNc1ncnc2c1ncn2[C@@H]1O[C@H](CO)[C@@H](O)[C@H]1O` [i^6A (4), N^6-(3-methylbut-2-enyl)-adenosine], the cytotoxic concentration (HeLa cells [1]; HeLa cells) is reported as 800 µM, the “effect on cell viability” value (HeLa cells [1]; concentration 800 μM) is reported as “cell viability will be significantly inhibited” and the effect on cells (HeLa cells [1]; concentration 2.0 mM) is reported as “significant inhibitory effect on cells”. For the same compound, the “effect on cell viability” value (HeLa cells [1]; concentration within 400 μM) was “little effect on cell viability”, the “fluorescence signal of total RNA after PTAD-DBCO-FITC (8) staining” value (HeLa cells [2]; cells cultured in the presence of i^6A, none in control group) was “significant fluorescence signal was detected” and the “fluorescence signal of total RNA after PTAD-DBCO-FITC (8) staining” value (HeLa cells [2]; i^6A 800 μM) was “weaker RNA fluorescence signal”. The “time to full conversion with iodine” value [3] was “less than 5 minutes” and the “conversion yield in reaction with PTAD” value [4] was “approximately 50%”.
For `CC(C)=CCNc1ncnc2c1ncn2C1OC(COP(=O)(O)OP(=O)(O)OP(=O)(O)O)C(O)C1O` (centres unmarked) [i^6ATP], the “recognition efficiency of T7 RNA polymerase” value (T7 RNA polymerase; compared with K4, preliminary experiments) was “significantly higher than that of K4” and the “recognition efficiency by T7 RNA polymerase” value (T7 RNA polymerase; compared with rATP) was “low comparing with rATP”.
